In ChEMBL document CHEMBL4014287, “Jesridonin in combination with paclitaxel demonstrates synergistic anti-tumor activity in human esophageal carcinoma cells” (Bioorg Med Chem Lett, 2017):
Active and inactive are the calls of the source. The rule behind the calls is not given here.

Tests used:
ECa-109 cell line [1] = experiment: Cytotoxicity against human EC109 cells assessed as reduction in cell viability after 24 hrs by MTT assay; type: functional, cell-based
ECa-109 cell line [2] = experiment: Induction of apoptosis in human EC109 cells assessed as nuclear shrinkage at 5 nM after 24 hrs by Hochest 33258 staining based fluorescent microscopic analysis; type: functional, cell-based
ECa-109 cell line [3] = experiment: Induction of apoptosis in human EC109 cells assessed as early apoptotic cells at 5 nM after 24 hrs by Annexin V-FITC/propidium iodide staining based flow cytometry (reference value: 1.3%); type: functional
ECa-109 cell line [4] = experiment: Induction of apoptosis in human EC109 cells assessed as viable cells at 5 nM after 24 hrs by Annexin V-FITC/propidium iodide staining based flow cytometry (reference value: 96.1%); type: functional; conditions: ECa-109, 24 h, read-out: Activity
Mus musculus [5] = experiment: Toxicity in nude mouse xenografted with human EC109 cells assessed as pathological changes at 5 mg/kg measured after 21 days; type: organism-based; conditions: in vivo, 504 h
ECa-109 cell line [6] = experiment: Induction of apoptosis in human EC109 cells assessed as necrotic cells at 5 nM after 24 hrs by Annexin V-FITC/propidium iodide staining based flow cytometry (reference value: 1.6 %); type: functional
Mus musculus [7] = experiment: Toxicity in nude mouse xenografted with human EC109 cells assessed as skin ulceration at 5 mg/kg measured after 21 days; type: organism-based; conditions: in vivo, 504 h
Mus musculus [8] = experiment: Toxicity in nude mouse xenografted with human EC109 cells assessed as body weight loss at 5 mg/kg measured after 21 days; type: organism-based; conditions: in vivo, 504 h
ECa-109 cell line [9] = experiment: Induction of apoptosis in human EC109 cells assessed as nuclear condensation at 5 nM after 24 hrs by Hochest 33258 staining based fluorescent microscopic analysis; type: functional, cell-based
ECa-109 cell line [10] = experiment: Antitumor activity against human EC109 cells xenografted in nude mouse assessed as induction of necrosis at 5 mg/kg measured after 21 days by H and E staining based assay; type: functional, organism-based
ECa-109 cell line [11] = experiment: Induction of apoptosis in human EC109 cells assessed as late apoptotic cells at 5 nM after 24 hrs by Annexin V-FITC/propidium iodide staining based flow cytometry (reference value: 1%); type: functional

CC(=O)O[C@H]1C(=O)[C@@]2(C)[C@H]([C@H](OC(=O)c3ccccc3)[C@]3(O)C[C@H](OC(=O)[C@H](O)[C@@H](NC(=O)c4ccccc4)c4ccccc4)C(C)=C1C3(C)C)[C@]1(OC(C)=O)CO[C@@H]1C[C@@H]2O [PACLITAXEL]
Activity (ECa-109 cell line [1]): Dose-dependent effect
Activity (ECa-109 cell line [2]): Active
Activity (ECa-109 cell line [3]): 4.5%
viability at 0.005 µM (ECa-109 cell line [4]): 94.1%
Activity (Mus musculus [5]): Non-Toxic
Activity (ECa-109 cell line [6]): 0.5%
Activity (Mus musculus [7]): Non-Toxic
Activity (Mus musculus [8]): Non-Toxic
Activity (ECa-109 cell line [9]): Active
Activity (ECa-109 cell line [10]): Active
Activity (ECa-109 cell line [11]): 0.9%
